Active and inactive are the calls of the source. No cut-off for these calls is given here.
Tests used:
CRMM-1 [1] = test: Antitumor activity against human CRMM-1 cells xenografted in immunodeficient NCG mouse assessed as mean tumor volume at 10 mg/kg, po for 28 days administered five times per week (reference value: 540 mm3); format: functional; details: time 28 day
CRMM-1 [2] = test: Antitumor activity against human CRMM-1 cells xenografted in immunodeficient NCG mouse assessed as tumor growth suppression at 10 mg/kg, po for 28 days administered five times per week relative to control; format: functional; details: time 28 day
[3] = Toxicity in immunodeficient NCG mouse xenografted with human CRMM-1 cells assessed as pathomorphological change in liver at 10 mg/kg, po for 28 days administered five times per week by H and E staining based analysis; format: organism-based; details: in vivo, 672 h, time 28 day
[4] = Toxicity in immunodeficient NCG mouse xenografted with human CRMM-1 cells assessed as pathomorphological change in kidney at 10 mg/kg, po for 28 days administered five times per week by H and E staining based analysis; format: organism-based; details: in vivo, 672 h, time 28 day
CRMM-1 [5] = test: Antitumor activity against human CRMM-1 cells xenografted in immunodeficient NCG mouse assessed as mean tumor volume at 10 mg/kg, ip for 28 days administered five times per week (reference value: 540 mm3); format: functional; details: time 28 day
CRMM-1 [6] = test: Antitumor activity against human CRMM-1 cells xenografted in immunodeficient NCG mouse assessed as mean tumor volume at 20 mg/kg, ip for 28 days administered five times per week (reference value: 540 mm3); format: functional; details: time 28 day
CRMM-1 [7] = test: Antitumor activity against human CRMM-1 cells xenografted in immunodeficient NCG mouse assessed as tumor growth suppression at 10 mg/kg, ip for 28 days administered five times per week relative to control; format: functional; details: time 28 day
CRMM-1 [8] = test: Antitumor activity against human CRMM-1 cells xenografted in immunodeficient NCG mouse assessed as tumor growth suppression at 20 mg/kg, ip for 28 days administered five times per week relative to control; format: functional; details: time 28 day
[9] = Toxicity in immunodeficient NCG mouse xenografted with human CRMM-1 cells assessed as body weight loss at 10 to 20 mg/kg, ip for 28 days administered five times per week; format: organism-based; details: in vivo, 672 h, dose 10-20 mg/kg, time 28 day
[10] = Toxicity in immunodeficient NCG mouse xenografted with human CRMM-1 cells assessed as change in serum ALT level at 10 to 20 mg/kg, ip for 28 days administered five times per week; format: organism-based; details: in vivo, 672 h, dose 10-20 mg/kg, time 28 day
[11] = Toxicity in immunodeficient NCG mouse xenografted with human CRMM-1 cells assessed as change in serum AST level at 10 to 20 mg/kg, ip for 28 days administered five times per week; format: organism-based; details: in vivo, 672 h, dose 10-20 mg/kg, time 28 day
[12] = Toxicity in immunodeficient NCG mouse xenografted with human CRMM-1 cells assessed as change in serum CREA level at 10 to 20 mg/kg, ip for 28 days administered five times per week; format: organism-based; details: in vivo, 672 h, dose 10-20 mg/kg, time 28 day
[13] = Toxicity in immunodeficient NCG mouse xenografted with human CRMM-1 cells assessed as change in serum urea level at 10 to 20 mg/kg, ip for 28 days administered five times per week; format: organism-based; details: in vivo, 672 h, dose 10-20 mg/kg, time 28 day
[14] = Toxicity in immunodeficient NCG mouse xenografted with human CRMM-1 cells assessed as pathomorphological change in liver at 10 to 20 mg/kg, ip for 28 days administered five times per week by H and E staining based analysis; format: organism-based; details: in vivo, 672 h, dose 10-20 mg/kg, time 28 day
[15] = Toxicity in immunodeficient NCG mouse xenografted with human CRMM-1 cells assessed as pathomorphological change in kidney at 10 to 20 mg/kg, ip for 28 days administered five times per week by H and E staining based analysis; format: organism-based; details: in vivo, 672 h, dose 10-20 mg/kg, time 28 day
[16] = Antiproliferative activity against human CM-AS16 cells assessed as cell growth inhibition incubated for 72 hrs by CCK8 assay; format: functional, cell-based; details: CM-AS16, 72 h
CRMM-2 = test: Antiproliferative activity against human CRMM-2 cells assessed as cell growth inhibition incubated for 72 hrs by CCK8 assay; format: functional, cell-based; details: CRMM-2, 72 h
[17] = Antiproliferative activity against human CM2005.1 cells assessed as cell growth inhibition incubated for 72 hrs by CCK8 assay; format: functional, cell-based; details: CM2005.1, 72 h
CRMM-1 [18] = test: Antiproliferative activity against human CRMM-1 cells assessed as cell growth inhibition incubated for 72 hrs by CCK8 assay; format: functional, cell-based; details: CRMM-1, 72 h
[19] = Antiproliferative activity against human HL7702 cells assessed as cell growth inhibition incubated for 72 hrs by CCK8 assay; format: toxicity, cell-based; details: HL7702 (L02) cells
[20] = Antiproliferative activity against human PIG1 cells assessed as cell growth inhibition incubated for 72 hrs by CCK8 assay; format: toxicity, cell-based
[21] = Inhibition of homologous recombination in human CRMM-1 cells at 10 uM incubated for 12 hrs by real-time PCR analysis relative to control; format: functional
CRMM-1 [22] = test: Induction of apoptosis in human CRMM-1 cells at 3 uM measured after 48 hrs by DAPI/Annexin-V-PE staining based flow cytometry relative to control; format: functional
CRMM-1 [23] = test: Inhibition of cell migration in human CRMM-1 cells assessed as migration rate at 0.3 uM measured after 72 hrs by wound healing assay (reference value: 70 %); format: functional; parameters: scale not given: the % may be the effect or the level left
[24] = molecular target: T1, Double-strand break repair protein MRE11 (Homo sapiens, UniProt P49959); test: Binding affinity to his-tagged recombinant human MRE11 assessed as dissociation constant by MST assay
T1 sequence (P49959 whole entry): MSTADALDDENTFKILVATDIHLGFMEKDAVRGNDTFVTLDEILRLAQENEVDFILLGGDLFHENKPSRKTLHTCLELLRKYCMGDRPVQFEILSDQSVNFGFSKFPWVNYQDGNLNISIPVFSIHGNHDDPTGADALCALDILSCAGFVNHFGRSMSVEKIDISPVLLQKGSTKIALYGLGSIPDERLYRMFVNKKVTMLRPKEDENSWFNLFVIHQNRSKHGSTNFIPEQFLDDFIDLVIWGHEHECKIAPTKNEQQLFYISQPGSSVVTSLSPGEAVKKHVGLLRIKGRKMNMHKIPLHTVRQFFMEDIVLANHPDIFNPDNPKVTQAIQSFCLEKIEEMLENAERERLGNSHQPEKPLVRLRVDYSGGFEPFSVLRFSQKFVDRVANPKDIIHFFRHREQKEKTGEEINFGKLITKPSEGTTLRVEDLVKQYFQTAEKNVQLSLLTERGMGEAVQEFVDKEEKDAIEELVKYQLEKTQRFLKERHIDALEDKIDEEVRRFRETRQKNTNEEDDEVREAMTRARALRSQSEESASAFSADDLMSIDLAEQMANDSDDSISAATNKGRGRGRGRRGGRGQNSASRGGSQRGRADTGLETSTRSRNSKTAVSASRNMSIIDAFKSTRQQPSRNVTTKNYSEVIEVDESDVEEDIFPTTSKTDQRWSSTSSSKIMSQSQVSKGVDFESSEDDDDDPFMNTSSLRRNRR

CRMM-1 [25] = test: Inhibition of homologous recombination in human CRMM-1 cells at 10 uM incubated for 12 hrs by real-time PCR analysis; format: functional, cell-based

Q: With Cn1cnc2c(F)c(Nc3ccc(Br)cc3F)c(C(=O)NOCCO)cc21 [BINIMETINIB] as the compound, how does the Activity (CRMM-1 [1]) read?
A: 270 mm3

Q: And the Activity (CRMM-1 [2])?
A: 41%

Q: What about the Activity [3] of the same compound?
A: Non-Toxic

Q: What about the Activity [4] of the same compound?
A: Non-Toxic

Q: What does the source list for Cl.Cl.O=C(CCCc1ccccc1)c1c(OCCCN2CCNCC2)ccc2ccccc12?
A: Activity (CRMM-1 [5]): 390 mm3; Activity (CRMM-1 [6]): 340 mm3; Activity (CRMM-1 [7]): 21%; Activity (CRMM-1 [8]): 33%; Activity [9]: Non-Toxic; Activity [10]: Non-Toxic; Activity [11]: Non-Toxic; Activity [12]: Non-Toxic; Activity [13]: Non-Toxic; Activity [14]: Non-Toxic; Activity [15]: Non-Toxic

Q: With O=C(CCCc1ccccc1)c1c(OCCCN2CCNCC2)ccc2ccccc12 as the compound, how does the IC50 [16] read?
A: 2.9 µM

Q: What about the IC50 (CRMM-2) of the same compound?
A: 0.7 µM

Q: And the IC50 [17]?
A: 1 µM

Q: And the IC50 (CRMM-1 [18])?
A: 1.3 µM

Q: What about the IC50 at 72 h [19] of the same compound?
A: 25.6 µM

Q: And the IC50 at 72 h [20]?
A: 32.9 µM

Q: What about the inhibition at 10 µM [21] of the same compound?
A: 89.5%

Q: And the Activity (CRMM-1 [22])?
A: 80%

Q: And the Activity (CRMM-1 [23])?
A: 45%

Q: What about the Kd [24] of the same compound?
A: 4.3 µM

Q: Which IC50 [16] does the source give for CCCCCNCCCOc1ccccc1C(=O)CCCc1ccccc1 here?
A: 5.5 µM

Q: What about the IC50 (CRMM-2) of the same compound?
A: 1.3 µM

Q: What about the IC50 [17] of the same compound?
A: 3.8 µM

Q: What about the IC50 (CRMM-1 [18]) of the same compound?
A: 2.3 µM

Q: What about the IC50 at 72 h [19] of the same compound?
A: 2.4 µM

Q: What about the IC50 at 72 h [20] of the same compound?
A: 1.9 µM

Q: What about the inhibition (CRMM-1 [25]) of the same compound?
A: inactive

— ChEMBL document CHEMBL5385901, “Drug repurposing of propafenone to discover novel anti-tumor agents by impairing homologous recombination to delay DNA damage recovery of rare disease conjunctival melanoma” (Eur J Med Chem, 2023)
